From article PMC6286318, “Structure-function-guided exploration of the antimicrobial peptide polybia-CP identifies activity determinants and generates synthetic therapeutic candidates” (Communications Biology, 2018)
Entries after “also recorded” stand apart in the source; their conditions may differ. No end group written: not given here.

Legend:
[1] = Stability assay, resistance to degradation in fetal bovine serum; format: in vitro ADME; conditions: GIBCO fetal bovine serum, RP-LC peak area, three independent replicates; for Resistance to protease-mediated degradation in fetal bovine serum (in words): followed up to 6 h
Method: Fig. 6 Hemolysis and resistance to protease-mediated degradation of engineered peptides. a Schematic of experimental design and hemolytic assay results of Pol-CP-NH2 and derivatives, where hemolytic activity was evaluated by incubating the peptides (0.1–100 μmol L^−1) with human red blood cells in PBS at room temperature for 1 h. Experiments were performed in three independent replicates. b Resistance to degradation of Pol-CP-NH2 and analogs exposed to fetal bovine serum (FBS) proteases for 6 h. Experiments were done in three independent replicates (statistical significance was determined using one-way ANOVA, *p < 0.039, error bars represent standard deviation values)
The resistance to degradation assay is detailed by Powell et al.[89], and peptides were exposed to GIBCO fetal bovine serum. The reaction kinetics were followed by reverse-phase liquid chromatography and the percentage of remaining peptide was calculated by integrating the peptide peak area.

[2] = Circular dichroism spectroscopy, helical fraction (fH); format: physicochemical; conditions: CD
Method: Fig. 3 Physicochemical features and structure of Pol-CP-NH2 and Ala-scan analogs. a Circular dichroism spectra of Pol-CP-NH2 and Ala-scan derivatives at 50 µmol L^−1 in water, PBS (pH 7.4) and TFE/Water (3:2, v/v) showing peptides transition from unstructured in water to helically structured in TFE/water. Circular dichroism spectra were recorded after four accumulations at 20 °C, using a 1 mm path length quartz cell, between 260 and 190 nm at 50 nm min^-1, with a bandwidth of 0.5 nm. b MIC (µmol L^−1) average for each peptide against the first set of bacteria (E. coli BL21, P. aeruginosa PA01 and PA14, and S. aureus ATCC12600) in three independent replicates vs. fH in TFE/Water solution, where blue boxes represent peptides with lower activity and red boxes show peptides with higher activity compared to the wild-type. Optimal activity is reached in most of the cases for fH values higher than the wild-type
Fig. 4 Physicochemical features and structure of Pol-CP-NH2 and second-generation analogs. Circular dichroism spectra of the peptides at 50 µmol L^−1 in water, MeOH/Water (1:1, v/v), PBS (pH 7.4), POPC (10 mmol L^−1), POPC:DOPE (3:1, 10 mmol L^−1), POPC:POPG (3:1, 10 mmol L^−1), SDS (20 mmol L^−1), TFE/Water (2:3, 3:2, 4:1, v/v) showing peptides transition from unstructured in water to helically structured in TFE/water. Circular dichroism spectra were recorded after four accumulations at 20 °C, using a 1 mm path length quartz cell, between 260 and 190 nm at 50 nm min^−1, with a bandwidth of 0.5 nm
Circular dichroism experiments were performed on a J-815 Circular Dichroism Spectropolarimeter (Jasco). Measurements conditions are described by Torres et al.[84] Peptides at 50 μmol L^−1 were analyzed in ten different environments: water, PBS (pH 7.4), methanol/water (1:1; v-v), TFE/Water (2:3, 3:2 and 4:1; v-v), 10 mmol L^−1 POPC, 10 mmol L^−1 POPC:DOPE (3:1) and 10 mmol L^−1 POPC:POPG (3:1). Vesicles were prepared according to Torres et al.[35]. A Fourier transform filter was applied to minimize background effects.

[3] = RP-HPLC retention time (correlated with hydrophobicity); format: physicochemical; conditions: chromatographic, RP-HPLC Supelcosil C18 (4.6 x 150 mm), 60 Å, 5 μm; A 0.1% TFA/H2O, B 0.1% TFA in 90% ACN/H2O; 5-95% B in 30 minutes; 1.0 mL min-1; 220 nm; correlated with Heliquest hydrophobicity
Method: First, theoretical values of physicochemical features such as hydrophobicity, hydrophobic moment, and net positive charge were calculated, and helical wheels were generated using the Heliquest webserver[31] (Table 1 and Supplementary Figure 1). Hydrophobicity values produced by the server were correlated with retention times obtained by RP-HPLC analyses (Supplementary Table 1), confirming the accuracy of the computational predictions. Next, peptides were synthesized and tested against the Gram-negative bacteria Escherichia coli and Pseudomonas aeruginosa, as well as against the Gram-positive bacterium Staphylococcus aureus. We obtained slightly different results from those reported by Souza et al.[30], who described activity against Gram-positive bacteria but poor activity against Gram-negative species. […] MIC results were confirmed by colony-forming unit (CFU) counts of bacteria after one day of exposure to the peptides (Supplementary Figure 2).
Supplem enta r y Ta b le 1. Summary of Pol-CP-NH2 and desi gned anal ogs.
Label Pep t id e Sequence Molecular Ob s erv ed Pu rit y HPLC HC50 MIC SIe Cyt oto xic it y
Weight Molecular (%)b Retention (µmo l L-1)d Av er a g e (µmo l L-1)
(D a) Weight (D a)a Time (min)c (µmo l L-1)
aLC/ESI-MS data were obtained on a Model 6130 Infinity mass spectrometer coupled to a Model 1260 HPLC system (Agilent), using a Phenomenex Gemini C18 column (2.0 […]

[4] = tested on: HEK293 human embryonic kidney cells; assay: Cytotoxicity assay (MTS); format: cell-based; conditions: for Cytotoxic concentration relative to MIC against P. aeruginosa: HEK293, 48 h, MTS, compared with MIC against P. aeruginosa; for Cytotoxicity (concentration showing cytotoxic activity): HEK293, 50,000 cells per well, peptides 0-64 μmol L-1, 37 °C, 48 h, MTS assay, three independent replicates
Method: Fig. 7 Cytotoxicity of engineered peptides. a Schematic of the experimental design for cytotoxicity assays of Pol-CP-NH2 and derivatives against HEK293 human embryonic kidney cells. Briefly, cells were cultured in DMEM medium supplemented with FBS and antibiotics at 37 °C and 5% CO2 and b results obtained by seeding HEK293 50,000 cells and incubating with peptides’ solution (0–64 μmol L^−1) at 37 °C for 48 h. Cell viability was measured by MTS assay. All experiments were performed in independent triplicates (heat map values represent mean values of three independent replicates)
Human embryonic kidney 293 (HEK 293) cells were cultured in Dulbecco’s Modified Eagle Medium suplemented with 10% Fetal Bovine Serum and 1% penicillin-streptomycin at 37 °C in 5% CO2. The day before treatment, 50,000 HEK 293 cells were seeded into each well in 96-well plates. The peptides were added at concentrations ranging from 0 to 64 μmol L^−1 and 48 h after exposure, cell viability was measured by means of MTS (dimethylthiazol-carboxymethoxyphenyl-sulfophenyl-tetrazolium) assay. Experiments were performed in three independent replicates for each condition.

[5] = Toxicity to mice in the skin infection model (body weight); format: in vivo; conditions: infected mice treated with 64 μmol L-1 peptide; body weight normalized by non-infected mice
Method: Fig. 8 In vivo activity of Pol-CP-NH2 and its analogs. a Schematic of the experimental design. Briefly, the back of mice was shaved and an abrasion was generated to damage the stratum corneum and the upper layer of the epidermis. Subsequently, an aliquot of 50 μL containing 5 × 10^7 CFU of P. aeruginosa in PBS was inoculated over each defined area. […] Four animals per group were euthanized and the area of scarified skin was excised two days post-infection b homogenized using a bead beater for 20 min (25 Hz), and serially diluted for CFU quantification (statistical significance was determined using two-way ANOVA followed by Dunnett’s test, ****p < 0.0001). c Mouse body weight measurements throughout the experiment normalized by the body weight of non-infected mice.
The anti-infective activity of peptides against P. aeruginosa strain PA14 in a mouse model was assessed according to Pane et al.[90] CD-1 IGS female mice (six-weeks-old) were used and maintained in accordance with the Guide for the Care and Use of Laboratory Animals in an AAALAC-accredited facility. All procedures were approved by the MIT’s Institutional Animal Care and Use Committee (IACUC), protocol number 1016-064-19. Two independent experiments were performed with 4 mice per group in each condition. Statistical significance was assessed using a one-way ANOVA.

GLGTILGLLKSL-NH2 [Peptide 20, [Gly]^1-Pol-CP-NH2]
Resistance to protease-mediated degradation in fetal bovine serum (in words) [1]: degraded in a few minutes

ILETKLGLLKSE-NH2 [Peptide 19, [Glu]^3-[Lys]^5-[Glu]^12-Pol-CP-NH2]
Helical fraction fH, MeOH/Water (1:1) ([2]; peptide 50 µmol L-1, MeOH/Water 1:1 v/v, 20 °C): 0.02 | Helical fraction fH, PBS ([2]; peptide 50 µmol L-1, PBS pH 7.4, 20 °C): 0.03 | Helical fraction fH, POPC ([2]; peptide 50 µmol L-1, POPC 10 mmol L-1 vesicles, 20 °C): 0 | Helical fraction fH, POPC/DOPE (3:1) ([2]; peptide 50 µmol L-1, POPC:DOPE 3:1 mol:mol 10 mmol L-1 vesicles, 20 °C): 0.03 | Helical fraction fH, POPC/POPG (3:1) ([2]; peptide 50 µmol L-1, POPC:POPG 3:1 mol:mol 10 mmol L-1 vesicles, 20 °C): 0.04 | Helical fraction fH, SDS ([2]; peptide 50 µmol L-1, SDS 20 mmol L-1 micelles, 20 °C): 0.13 | Helical fraction fH, TFE/Water (2:3) ([2]; peptide 50 µmol L-1, TFE/Water 2:3 v/v, 20 °C): 0.24 | Helical fraction fH, TFE/Water (3:2) ([2]; peptide 50 µmol L-1, TFE/Water 3:2 v/v, 20 °C): 0.21 | Helical fraction fH, TFE/Water (4:1) ([2]; peptide 50 µmol L-1, TFE/Water 4:1 v/v, 20 °C): 0.31 | Helical fraction fH, Water ([2]; peptide 50 µmol L-1, water, 20 °C, 1 mm cell): 0.05 | HPLC Retention Time [3]: 9.2 min

ILGKILGLLKSL-NH2 [Peptide 15, [Lys]^4-Pol-CP-NH2]
Cytotoxic concentration relative to MIC against P. aeruginosa [4]: two-fold to four-fold higher than their MICs | Resistance to protease-mediated degradation in fetal bovine serum (in words) [1]: increased resistance to protease-mediated degradation | remaining at 6 h ([1]; six hours of exposure, read-out: Remaining peptide after exposure to fetal bovine serum): ~50%

ILGTILGLLKSL-NH2 [WT, Pol-CP-NH2, reference compound]
Cytotoxicity (concentration showing cytotoxic activity) ([4]; listed as wild-type peptide): 32 µmol/L | Toxicity to mice / body weight, in words [5]: did not change abruptly

ILGTILKLLKSL-NH2 [Peptide 16, [Lys]^7-Pol-CP-NH2]
Cytotoxicity (concentration showing cytotoxic activity) [4]: 16 µmol/L | Cytotoxic concentration relative to MIC against P. aeruginosa [4]: two-fold to four-fold higher than their MICs | Resistance to protease-mediated degradation in fetal bovine serum (in words) [1]: increased resistance to protease-mediated degradation | Toxicity to mice / body weight, in words [5]: did not change abruptly; also recorded: non-toxic to mice
